Measurements from ChEMBL document CHEMBL4715709, “Synthesis and evaluation of anticonvulsant properties of new N-Mannich bases derived from 3-(1-phenylethyl)- and 3-benzyl-pyrrolidine-2,5-dione” (Bioorg Med Chem Lett, 2016).
Active and inactive are the calls of the source. The calls are words filed in the database; no cut-off is given here.

How the values were obtained:
[1] = test system: Mus musculus; experiment: Anticonvulsant activity in mouse assessed as protection against tonic-clonic seizures at 300 mg/kg, ip measured after 0.5 hrs by maximal electroshock seizure test; assay type: functional, organism-based
[2] = test system: Mus musculus; experiment: Anticonvulsant activity in mouse assessed as protection against tonic-clonic seizures at 300 mg/kg, ip measured after 4 hrs by maximal electroshock seizure test; assay type: functional, organism-based
[3] = Protection index, ratio of TD50 for neurotoxicity in ip dosed mouse to ED50 for anticonvulsant activity in ip dosed mouse measured after 4 hrs by subcutaneous pentylenetetrazole test; assay type: toxicity, organism-based; settings: in vivo, read-out: PI
[4] = test system: Mus musculus; experiment: Anticonvulsant activity in mouse assessed as protection against ScPTZ-induced epilepsy at 300 mg/kg, ip measured after 4 hrs by subcutaneous pentylenetetrazole test; assay type: functional, organism-based
[5] = test system: Mus musculus; experiment: Anticonvulsant activity in ip dosed mouse assessed as protection against ScPTZ-induced epilepsy measured after 4 hrs by subcutaneous pentylenetetrazole test; assay type: functional
[6] = Neurotoxicity activity in ip dosed mouse assessed as induction of motor impairment by rotarod test; assay type: toxicity, organism-based; settings: in vivo
[7] = Neurotoxicity in ip dosed mouse assessed as minimum dose required for induction of motor impairment measured after 0.5 hrs by rotarod test; assay type: toxicity, organism-based; settings: in vivo
[8] = Neurotoxicity in mouse assessed as induction of motor impairment at 300 mg/kg, ip measured after 4 hrs by rotarod test; assay type: toxicity, organism-based; settings: in vivo
[9] = test system: Mus musculus; experiment: Anticonvulsant activity in ip dosed mouse assessed as minimum dose required for protection against ScPTZ-induced epilepsy measured after 0.5 hrs by subcutaneous pentylenetetrazole test; assay type: functional
[10] = Neurotoxicity in mouse assessed as induction of motor impairment at 300 mg/kg, ip measured after 0.5 hrs by rotarod test; assay type: toxicity, organism-based; settings: in vivo
[11] = test system: Mus musculus; experiment: Anticonvulsant activity in ip dosed mouse assessed as minimum dose required for protection against ScPTZ-induced epilepsy measured after 4 hrs by subcutaneous pentylenetetrazole test; assay type: functional
[12] = test system: Mus musculus; experiment: Anticonvulsant activity in mouse assessed as protection against ScPTZ-induced epilepsy at 300 mg/kg, ip measured after 0.5 hrs by subcutaneous pentylenetetrazole test; assay type: functional, organism-based
[13] = test system: Mus musculus; experiment: Anti-convulsant activity in mouse assessed as protection of animals against psychomotor seizures at 100 mg/kg, ip measured after 4 hrs by 6 Hz limbic seizure test; assay type: functional
[14] = test system: Mus musculus; experiment: Anticonvulsant activity in ip dosed mouse assessed as minimum dose required for protection against tonic-clonic seizures measured after 0.5 hrs by maximal electroshock seizure test; assay type: functional
[15] = Protection index, ratio of TD50 for neurotoxicity in ip dosed mouse to ED50 for anticonvulsant activity in ip dosed mouse measured after 0.5 hrs by 6 Hz limbic seizure test; assay type: toxicity, organism-based; settings: in vivo, read-out: PI
[16] = Protection index, ratio of TD50 for neurotoxicity in ip dosed mouse to ED50 for anticonvulsant activity in ip dosed mouse measured after 0.5 hrs by subcutaneous pentylenetetrazole test; assay type: toxicity, organism-based; settings: in vivo, read-out: PI
[17] = test system: Mus musculus; experiment: Anti-convulsant activity in ip dosed mouse assessed as protection against psychomotor seizures measured after 0.5 hrs by 6 Hz limbic seizure test; assay type: functional
[18] = test system: Mus musculus; experiment: Anticonvulsant activity in ip dosed mouse assessed as protection against ScPTZ-induced epilepsy measured after 0.5 hrs by subcutaneous pentylenetetrazole test; assay type: functional
[19] = test system: Mus musculus; experiment: Anticonvulsant activity in ip dosed mouse assessed as minimum dose required for protection against tonic-clonic seizures measured after 4 hrs by maximal electroshock seizure test; assay type: functional
[20] = test system: Mus musculus; experiment: Anti-convulsant activity in mouse assessed as protection of animals against psychomotor seizures at 100 mg/kg, ip measured after 0.5 hrs by 6 Hz limbic seizure test; assay type: functional
[21] = Neurotoxicity in ip dosed mouse assessed as minimum dose required for induction of motor impairment measured after 4 hrs by rotarod test; assay type: toxicity, organism-based; settings: in vivo

Row | SMILES | Activity [1] | Activity [2] | Activity [4] | MTD50 [7] [mg/kg] | Activity [8] | MED=>50 [11] [mg/kg] | Activity [12] | further results
1 | COc1ccccc1N1CCN(CN2C(=O)CC(C(C)c3ccccc3)C2=O)CC1 (stereo not drawn) | inactive | inactive | inactive | 300 | Non-Toxic | – | – | selectivity ratio at 4 h [3]: 2.66; ED50 [5]: 48 mg/kg; TD50 [6]: 128 mg/kg; MED=>50 [9]: 30 mg/kg
2 | Cl.O=C1CC(Cc2ccccc2)C(=O)N1CN1CCN(Cc2ccccc2)CC1 (racemic) | inactive | inactive | – | – | Non-Toxic | 100 | inactive | Activity [10]: Non-Toxic
3 | O=C1CC(Cc2ccccc2)C(=O)N1CN1CCOCC1 (racemic) | – | – | – | 300 | Non-Toxic | 100 | – | Activity [13]: 0%; minimum effective dose [14]: 300 mg/kg; TD50 [6]: 179 mg/kg; selectivity ratio at 0.5 h [15]: 3.37; selectivity ratio at 0.5 h [16]: 2.05; ED50 [17]: 53 mg/kg; ED50 [18]: 87 mg/kg; MED=>50 [19]: 300 mg/kg; Activity [20]: 100%; MED=>50 [9]: 100 mg/kg
4 | CC(c1ccccc1)C1CC(=O)N(CN2CCC(Cc3ccccc3)CC2)C1=O (racemic) | inactive | – | inactive | – | Non-Toxic | – | inactive | Activity [10]: Non-Toxic; MED=>50 [19]: 300 mg/kg
5 | CC(c1ccccc1)C1CC(=O)N(CN2CCN(c3cccc(C(F)(F)F)c3)CC2)C1=O (racemic) | inactive | – | inactive | – | Non-Toxic | – | inactive | Activity [10]: Non-Toxic; MED=>50 [19]: 300 mg/kg
6 | O=C1CC(Cc2ccccc2)C(=O)N1CN1CCN(c2ccc(F)cc2)CC1 (racemic) | – | – | inactive | 300 | – | – | inactive | minimum effective dose [14]: 300 mg/kg; MTD50 [21]: 300 mg/kg; MED=>50 [19]: 300 mg/kg
7 | Cl.O=C1CC(Cc2ccccc2)C(=O)N1CN1CCN(CCO)CC1 (racemic) | – | inactive | – | 300 | Non-Toxic | 300 | inactive | Activity [13]: 0%; minimum effective dose [14]: 300 mg/kg; TD50 [6]: 344 mg/kg; selectivity ratio at 0.5 h [15]: 4.85; ED50 [17]: 71 mg/kg; Activity [20]: 100%
8 | O=C1CC(Cc2ccccc2)C(=O)N1CN1CCN(c2ccc(Cl)cc2)CC1 (racemic) | inactive | inactive | inactive | – | – | – | inactive | Activity [10]: Non-Toxic; MTD50 [21]: 300 mg/kg
9 | O=C1CC(Cc2ccccc2)C(=O)N1CN1CCN(c2ccccc2F)CC1 (racemic) | inactive | inactive | – | 300 | Non-Toxic | 300 | inactive | –
10 | CC(c1ccccc1)C1CC(=O)N(CN2CCN(c3ccc(Cl)cc3)CC2)C1=O (racemic) | inactive | inactive | – | – | Non-Toxic | 300 | – | Activity [10]: Non-Toxic; MED=>50 [9]: 300 mg/kg
11 | CC(c1ccccc1)C1CC(=O)N(CN2CCN(c3ncccn3)CC2)C1=O (racemic) | inactive | inactive | – | 300 | Non-Toxic | 300 | inactive | –
12 | O=C1CC(Cc2ccccc2)C(=O)N1CN1CCN(c2cccc(C(F)(F)F)c2)CC1 (racemic) | – | – | inactive | 300 | Non-Toxic | – | inactive | minimum effective dose [14]: 300 mg/kg; MED=>50 [19]: 300 mg/kg
13 | COc1ccccc1N1CCN(CN2C(=O)CC(Cc3ccccc3)C2=O)CC1 (racemic) | inactive | inactive | inactive | 300 | Non-Toxic | – | – | MED=>50 [9]: 100 mg/kg
14 | O=C1CC(Cc2ccccc2)C(=O)N1CN1CCN(c2ncccn2)CC1 (racemic) | inactive | inactive | – | 300 | – | 100 | inactive | MTD50 [21]: 300 mg/kg
15 | CN1CCN(CN2C(=O)CC(Cc3ccccc3)C2=O)CC1.Cl (racemic) | – | inactive | – | – | Non-Toxic | 300 | – | Activity [10]: Non-Toxic; Activity [13]: 0%; minimum effective dose [14]: 300 mg/kg; TD50 [6]: 324 mg/kg; selectivity ratio at 0.5 h [15]: 5; selectivity ratio at 0.5 h [16]: 3.41; ED50 [17]: 65 mg/kg; ED50 [18]: 95 mg/kg; Activity [20]: 66%; MED=>50 [9]: 100 mg/kg
16 | Cc1cccc(N2CCN(CN3C(=O)CC(Cc4ccccc4)C3=O)CC2)c1 (racemic) | – | inactive | – | 300 | Non-Toxic | 100 | inactive | minimum effective dose [14]: 300 mg/kg
17 | O=C1CC(Cc2ccccc2)C(=O)N1CN1CCN(c2ccccc2Cl)CC1 (racemic) | inactive | inactive | – | – | Non-Toxic | 100 | inactive | Activity [10]: Non-Toxic
18 | O=C1CC(Cc2ccccc2)C(=O)N1CN1CCN(c2cccc(Cl)c2)CC1 (racemic) | inactive | inactive | inactive | 300 | Non-Toxic | – | inactive | –
19 | O=C1CC(Cc2ccccc2)C(=O)N1CN1CCN(c2ccccc2)CC1 (racemic) | inactive | inactive | inactive | 300 | Non-Toxic | – | inactive | –
20 | CC(c1ccccc1)C1CC(=O)N(CN2CCN(CCO)CC2)C1=O.Cl (racemic) | – | inactive | – | 300 | Non-Toxic | 300 | – | Activity [13]: 0%; minimum effective dose [14]: 300 mg/kg; TD50 [6]: 290 mg/kg; selectivity ratio at 0.5 h [15]: 9.66; ED50 [17]: 30 mg/kg; Activity [20]: 100%; MED=>50 [9]: 300 mg/kg
21 | CC(c1ccccc1)C1CC(=O)N(CN2CCOCC2)C1=O (racemic) | – | – | inactive | 300 | Non-Toxic | – | inactive | minimum effective dose [14]: 300 mg/kg; MED=>50 [19]: 300 mg/kg
22 | CC(c1ccccc1)C1CC(=O)N(CN2CCN(C3CCCCC3)CC2)C1=O (racemic) | inactive | inactive | inactive | 300 | Non-Toxic | – | – | Activity [13]: 0%; TD50 [6]: 196 mg/kg; selectivity ratio at 0.5 h [15]: 2.61; selectivity ratio at 0.5 h [16]: 1.94; ED50 [17]: 75 mg/kg; ED50 [18]: 101 mg/kg; Activity [20]: 100%; MED=>50 [9]: 100 mg/kg
23 | Cc1cccc(N2CCN(CN3C(=O)CC(C(C)c4ccccc4)C3=O)CC2)c1 (racemic) | inactive | inactive | inactive | 300 | Non-Toxic | – | inactive | –
24 | CC(c1ccccc1)C1CC(=O)N(CN2CCN(c3cccc(Cl)c3)CC2)C1=O (racemic) | inactive | inactive | inactive | 300 | Non-Toxic | – | inactive | –
25 | COC[C@@H](NC(C)=O)C(=O)NCc1ccccc1 [LACOSAMIDE] | – | – | – | – | – | – | – | selectivity ratio at 0.5 h [15]: 5.66; ED50 [17]: 6 mg/kg
26 | CC[C@@H](C(N)=O)N1CCCC1=O [LEVETIRACETAM] | – | – | – | – | – | – | – | TD50 [6]: > 500 mg/kg
27 | CCCC(CCC)C(=O)O [VALPROIC ACID] | – | – | – | – | – | – | – | ED50 [17]: 131 mg/kg; ED50 [18]: 239 mg/kg
